Experimental data taken from patent US20220184081A1, “ANTIPRURITIC AGENT USING PAC1 RECEPTOR ANTAGONIST” (KAGOSHIMA UNIVERSITY, priority 2019, published 2022).

What was measured:
[1] = test system: atopic dermatitis mouse model; assay: Atopic dermatitis mouse model (DNFB); format: in vivo, ICR mice; conditions: 30 mg/kg p.o. 30 minutes before 1 hour video observation; FIG. 13
Procedure: The present test was carried out with reference to the method of Kitamura et al. that is a test system published as a method for evaluating itch in animals (Kitamura A., Takata R., Aizawa S., et al.: A murine model of atopic dermatitis can be generated by painting the dorsal skin with hapten twice 14 days apart, Scientific Rep., 8: 5988, 2018).
Five-week-old ICR mice (30 mice) were each placed in a cage, and were then conditioned for 1 week. Thereafter, three days before initiation of the test, the waist of each mouse was shaved. On the experiment start date, for the purpose of destroying the function of skin barrier, tape stripping was carried out, and 0.15% 2,4-dinitrofluorobenzene (DNFB) solution [acetone/olive oil (3:1)] was applied to the shaved waist of each mouse, using a 100-μIL pipette. Seven days later, the 0.15% DNFB solution was applied thereto once again, and two hours later, video observation was carried out for 1 hour. The shaved 30 mice were divided into 5 groups (6 mice per group), namely, a 30 mg/kg PA-8 oral (p.o.) administration group, a 30 mg/kg compound 2o oral (p.o.) administration group, a 30 mg/kg PA-9 oral (p.o.) administration group, a 30 mg/kg compound 3d (p.o.) administration group, and a solvent administration group (VEH: oral administration of 10% DMSO aqueous solution). Oral administration was carried out 30 minutes before initiation of the video observation.
An outline of the procedures of a behavioral experiment using the atopic dermatitis mouse model is shown in FIG. 12, and the results obtained by evaluating the time spent in scratching of each group are shown in FIG. 13.

[2] = test system: chloroquine-induced itch behavior in mice; assay: Itch behavior induced by chloroquine intradermal administration; format: in vivo, mouse; conditions: intrathecal pre-administration (i.t., 10 minutes before i.d.), 1 nmol; chloroquine 100 μg/10 μL; FIG. 10
Procedure: Chloroquine (100 μg/10 μL) was intradermally injected into the waist of each mouse (intradermal injection, i.d.). The reaction of biting, licking or scratching the injected site was defined as itch behavior, and the behavioral time was counted every 5 minutes. […] DMSO (10% solution, dissolved in normal saline) is a solvent for PA-8 or PA-9.

[3] = test system: PACAP-induced itch behavior in mice; assay: Itch behavior induced by PACAP intradermal administration; format: in vivo, mouse; conditions: simultaneous intradermal administration with PACAP, 0.01 to 1 nmol; FIG. 7A, 8, 9
From the text: SLN indicates intradermal administration of normal saline. DMSO (10% solution, dissolved in normal saline) is a solvent for PA-8.
SLN indicates intradermal administration of normal saline. VEH (10% DMSO solution, dissolved in normal saline) is a solvent for PA-8 and the compound 2o.
SLN indicates intradermal administration of normal saline. VEH (10% DMSO solution, dissolved in normal saline) is a solvent for PA-9 and the compound 3d.

[4] = test system: Compound 48/80-induced itch behavior in mice; assay: Itch behavior induced by Compound 48/80 intradermal administration; format: in vivo, mouse; conditions: intrathecal pre-administration (i.t., 10 minutes before i.d.), 1 nmol; Compound 48/80 100 μg/10 μL; FIG. 11
Procedure: Compound 48/80 (100 μg/10 μL) was intradermally injected into the waist of each mouse (intradermal injection, i.d.). The reaction of biting, licking or scratching the injected site was defined as itch behavior, and the behavioral time was counted every 5 minutes. […] DMSO (10% solution, dissolved in normal saline) is a solvent for PA-8 or PA-9.

[5] = test system: serotonin (5-HT)-induced itch mouse model; assay: Serotonin (5-HT)-induced itch mouse model; format: in vivo; conditions: intrathecal pre-administration 30 minutes before 5-HT 50 nmol i.d.; PA-8 0.1 or 1 nmol; P6-38 100 pmol; FIG. 1
Procedure: 5-HT (50 nmol, 10 μL) was intradermally injected into the waist of each mouse (intradermal injection, i.d.). The reaction of the mice to bite, lick or scratch the injected site was defined as an itch behavior, and the action time was measured every 5 minutes. […] SLN indicates the effects obtained in the case of administering normal saline instead of 5-HT. ACSF is an abbreviation of an artificial cerebrospinal fluid, which was a solvent for P6-38 and PA-8.

mouse VPAC1 receptor = biological target: T1, mouse VPAC1 receptor (Mus musculus, UniProt P97751); assay: CREB phosphorylation by PACAP stimulus, Western blot, VPAC1/CHO cells; format: cell-based; conditions: PA-8 10 pM to 10 nM, FIG. 4B
T1 construct: expressed in transfected cells; host or cells: CHO cells
T1 sequence (P97751 31-459): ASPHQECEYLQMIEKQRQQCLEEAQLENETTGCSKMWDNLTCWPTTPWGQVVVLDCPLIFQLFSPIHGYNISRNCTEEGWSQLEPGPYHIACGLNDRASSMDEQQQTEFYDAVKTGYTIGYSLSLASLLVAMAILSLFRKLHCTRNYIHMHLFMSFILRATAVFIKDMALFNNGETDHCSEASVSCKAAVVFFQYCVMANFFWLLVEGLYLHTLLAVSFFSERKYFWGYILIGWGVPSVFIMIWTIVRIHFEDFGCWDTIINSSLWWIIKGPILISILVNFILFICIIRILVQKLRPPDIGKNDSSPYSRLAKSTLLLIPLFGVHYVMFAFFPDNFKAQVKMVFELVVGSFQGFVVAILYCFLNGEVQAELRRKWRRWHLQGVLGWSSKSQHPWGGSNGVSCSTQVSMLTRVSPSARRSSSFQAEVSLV
Procedure: The effect of each compound on the phosphorylation of CREB (cAMP-responsive element-binding protein) produced by a PACAP stimulus was examined by Western blot analysis using an anti-phosphorylated CREB (pCREB) antibody with a mouse PAC1 receptor-expressing CHO cells (PAC1/CHO cells) and a mouse VPAC1 receptor-expressing CHO cells (VPAC1/CHO cells).
Specifically, treatment with a compound (PA-8, compound 2j and compound 2o) at 10 pM to 10 nM or a solvent therefor, DMSO (VEH: 0.1% DMSO-containing phosphate buffer solution) was performed for 30 minutes, 1 nM PACAP was then added, and protein was recovered within 30 minutes after a PACAP stimulus.

Compound: C=CCOc1ccc(C2CC(=O)Nc3nc(N)[nH]c(=O)c32)cc1OC (stereo not drawn) [PA-8]
- itch behavior induced by the DNFB treatment (time spent in scratching) [1]: significantly suppressed
- chloroquine-induced itch behavior [2]: almost completely suppressed
- biting, licking or scratching behavior induced by PACAP (100 pmol) intradermal administration [3]: suppressed in a dose-dependent manner
- Compound 48/80-induced itch behavior [4]: almost completely suppressed
- 5-HT-induced itch behavior (bite, lick or scratch the injected site, action time) [5]: almost completely suppressed
- CREB phosphorylation by PACAP (1 nM) (mouse VPAC1 receptor): did not suppress CREB phosphorylation
